From US20090111759A1, “Synergistic Combination of Glutamate-and Gaba-Gated Chloride Agonist Pesticide and at Least One Vitamin E, Niacin, or Derivatives Thereof” (priority 2006, published 2009)

Experiments:
[1] = system: Dysdercus cingulatus nymphs; format: in vivo; details: in total 20,000 ng/nymph applied dorsally; two replicates of ten nymphs
Procedure: Abamectin, Ivermectin and tocopherol solutions in acetone were prepared. Mixed solutions of either Abamectin or Ivermectin and tocopherol were also prepared. Nymphs of Dysdercus cingulatus were treated topically with Abamectin acetone solution (20,000 ng/nymph), Ivermectin acetone solution (20,000 ng/nymph), a tocopherol acetone solution (20,000 ng/nymph) or a solution containing Abamectin and tocopherol or Ivermectin and tocopherol in the ratio 1:3 (20,000 ng total/nymph). The solutions were applied dorsally on the nymphs.
The Dysdercus cingulatus mortality was followed over time and recorded. Log time-mortality curves were constructed for the Abamectin and Ivermectin solutions and for the mixtures with tocopherol. An LT50 value was calculated for each application.

[2] = system: Dysdercus cingulatus nymphs; format: in vivo; details: 2000 ng applied on each nymph; 24 h after applying
Procedure: A range of Abamectin solutions in acetone was prepared. Similarly, a range of tocopherol, all-rac alpha, solutions in acetone was prepared. Abamectin solution (2 μl), tocopherol solution (2 μl) or both were applied topically on nymphs of Dysdercus cingulatus. Abamectin was applied dorsally while tocopherol was applied ventrally. […] The mortality of the nymphs was recorded 24 h after applying the solutions.

[3] = system: Dysdercus cingulatus nymphs; assay: Topical application of Abamectin/nicotinamide acetone solutions, LD50 (Example 7); format: in vivo; details: sum of Abamectin and nicotinamide; mortality recorded 48 h after applying
Procedure: (§1) A range of Abamectin solutions in acetone was prepared. Similarly, a range of nicotinamide solutions was prepared. Mixed solutions of Abamectin and nicotinamide in acetone were prepared as well. Nymphs of Dysdercus cingulatus were treated topically with either an Abamectin acetone solution (2 μl), a nicotinamide acetone solution (2 μl) or mixed solutions (2 μl).
The Dysdercus cingulatus mortality was recorded 48 h after applying the products. Log dose-mortality curves were constructed for the Abamectin, the nicotinamide and for the mixed solutions. The LD50 values reflect the sum of Abamectin and nicotinamide (active ingredients) present at LD50.
From the observed LD50 values for Abamectin and nicotinamide expected LD50 values for the mixtures were calculated according to Wadley's formula.

[4] = system: Dysdercus cingulatus nymphs; assay: Topical application of Abamectin/tocopherol acetone solutions, LD50 (Example 5); format: in vivo; details: sum of Abamectin and tocopherol; mortality recorded 48 h after applying
Procedure: as §1, with “of tocopherol, all-rac alpha,” for “of nicotinamide”, “and tocopherol” for “and nicotinamide”, “a tocopherol” for “a nicotinamide”, “μl). The Dysdercus cingulatus mortality was recorded 48 h after applying the products.” for “μl).”
Log dose-mortality curves were constructed for the Abamectin and the tocopherol treatments. LD50 values based on the sum of Abamectin and tocopherol contents (ng active ingredient(s) per nymph) were calculated.
From the observed LD50 values for Abamectin and tocopherol expected LD50 values for the mixtures were calculated according to Wadley's formula.

[5] = system: Spodoptera exigua larvae; details: single ingredient, 10 ppm in tests solution
Procedure: (§2) The efficacy of an Abamectin 18 g/l emulsifiable concentrate formulation (EC) was tested on Spodoptera exiqua larvae on Tradescani crassifolia leaves. The test on Spodoptera exigua was done as a dip-test where Tradescani crassifolia leaves were dipped in the various tests solutions and dried. Afterwards, each leaf was infested with 5 Spodoptera exigua larvae.
(§3) Besides testing the Abamectin 18 g/l EC formulation, Abamectin 18 g/l EC formulation was tested together with 4.5 g/l and 72 g/l nicotinamide. An EC formulation comprising nicotinamide was included in the test as well.

[6] = system: Spodoptera exigua larvae; assay: whole plant or invertebrate; details: read-out: Observed mortality (%)
Procedure: as §2, §3

Row | Molecule | LT50 [1] [h] | % Mortality for each ingredient [2] [%] | LD50obs [3] | LD50obs [4] | Observed mortality (%) [5] [%] | mortality at 10 ppm [6] [%]
1 | Abamectin | 5.3 | 74 | 126 ng AI(s) per nymph | 1595 ng AI(s) per nymph | 10 | 
2 | NC(=O)c1cccnc1 [nicotinamide] |  |  | >20,000 ng AI(s) per nymph |  |  | 0
